# Laboratory results taken from US11851446B2, “Probes for imaging Huntingtin protein” (CHDI Foundation, Inc., priority 2014, dated 2023).
# pIC50: −log10 of the molar value.
# Target: T1, Q46 protein aggregates (Homo sapiens, UniProt P42858, INS38QQQQQQQQQQQQQQQQQQQQQQQQQ)
# T1 construct: fused on or other part: GST at the N-terminus, cut off by thrombin before the test to start aggregation
# Assay: Q46 Radioligand Binding Assay (RBA)
# Details: displacement of 10 nM [3H3]MK-3328 from 5 μM aggregated Q46 protein, 60 minutes at 37° C.
# Procedure: Q46 Radioligand Binding Assay
# For radioligand binding assays (RBA) GST-Q46 protein was generated based on a previous publication (Scherzinger et al. Cell, Vol. 90, 549-558, Aug. 8, 1997). For experiments 33 μM GST-Q46 was incubated with 150 μg/mL thrombin in assay buffer (150 mM NaCl, 50 mM Tris pH 8.0) and 2 mM CaCl2 for 16 hours at 37° C. Aggregated Q46 was pelleted by centrifugation for 5 minutes at 13,000 rpm in a bench top centrifuge and re-dissolved in the same volume of assay buffer. Test compounds were prepared by titration in DMSO at 11 concentrations from 33 μM to 1 nM. For the RBA, Q46 protein aggregates and test compounds were pre-incubated in assay buffer for 20 minutes at room temperature, in 140 μL/well in a 96-well plate (pp, round bottom). Then, ligand was added in 10 μL/well and incubated for 60 minutes at 37° C. Final assay concentrations were […] test compound, 5 μM Q46 protein (equivalent monomer concentration) and 10 nM ligand [^3H3]MK-3328 (Harrision et al., ACS Med. Chem. Lett., 2 (2011), pp 498-502). Samples were transferred onto GF/B filter plates and washed 2× with 200 μL PBS using a Filtermate Harvester. After drying filter plates for 1 hour at 37° C., the back of the plates was sealed with foil and 30 μl/well scintillation fluid (Packard MicroScint 40) was added, incubated for […] 15 minutes in the dark and counted in a TopCount reader. For analysis, replicate data from independent assay plates were normalized towards 0% and 100% inhibition using control wells of vehicle (0% inhibition) and 3 μM unlabelled MK-3328 (100% inhibition). IC50 values were determined with a sigmoidal inhibition model with four variables (top, bottom, slope, IC50) in a global fit using the normalized replicate data.
# T1 sequence (P42858 with tags, fused parts or gaps with the stated changes): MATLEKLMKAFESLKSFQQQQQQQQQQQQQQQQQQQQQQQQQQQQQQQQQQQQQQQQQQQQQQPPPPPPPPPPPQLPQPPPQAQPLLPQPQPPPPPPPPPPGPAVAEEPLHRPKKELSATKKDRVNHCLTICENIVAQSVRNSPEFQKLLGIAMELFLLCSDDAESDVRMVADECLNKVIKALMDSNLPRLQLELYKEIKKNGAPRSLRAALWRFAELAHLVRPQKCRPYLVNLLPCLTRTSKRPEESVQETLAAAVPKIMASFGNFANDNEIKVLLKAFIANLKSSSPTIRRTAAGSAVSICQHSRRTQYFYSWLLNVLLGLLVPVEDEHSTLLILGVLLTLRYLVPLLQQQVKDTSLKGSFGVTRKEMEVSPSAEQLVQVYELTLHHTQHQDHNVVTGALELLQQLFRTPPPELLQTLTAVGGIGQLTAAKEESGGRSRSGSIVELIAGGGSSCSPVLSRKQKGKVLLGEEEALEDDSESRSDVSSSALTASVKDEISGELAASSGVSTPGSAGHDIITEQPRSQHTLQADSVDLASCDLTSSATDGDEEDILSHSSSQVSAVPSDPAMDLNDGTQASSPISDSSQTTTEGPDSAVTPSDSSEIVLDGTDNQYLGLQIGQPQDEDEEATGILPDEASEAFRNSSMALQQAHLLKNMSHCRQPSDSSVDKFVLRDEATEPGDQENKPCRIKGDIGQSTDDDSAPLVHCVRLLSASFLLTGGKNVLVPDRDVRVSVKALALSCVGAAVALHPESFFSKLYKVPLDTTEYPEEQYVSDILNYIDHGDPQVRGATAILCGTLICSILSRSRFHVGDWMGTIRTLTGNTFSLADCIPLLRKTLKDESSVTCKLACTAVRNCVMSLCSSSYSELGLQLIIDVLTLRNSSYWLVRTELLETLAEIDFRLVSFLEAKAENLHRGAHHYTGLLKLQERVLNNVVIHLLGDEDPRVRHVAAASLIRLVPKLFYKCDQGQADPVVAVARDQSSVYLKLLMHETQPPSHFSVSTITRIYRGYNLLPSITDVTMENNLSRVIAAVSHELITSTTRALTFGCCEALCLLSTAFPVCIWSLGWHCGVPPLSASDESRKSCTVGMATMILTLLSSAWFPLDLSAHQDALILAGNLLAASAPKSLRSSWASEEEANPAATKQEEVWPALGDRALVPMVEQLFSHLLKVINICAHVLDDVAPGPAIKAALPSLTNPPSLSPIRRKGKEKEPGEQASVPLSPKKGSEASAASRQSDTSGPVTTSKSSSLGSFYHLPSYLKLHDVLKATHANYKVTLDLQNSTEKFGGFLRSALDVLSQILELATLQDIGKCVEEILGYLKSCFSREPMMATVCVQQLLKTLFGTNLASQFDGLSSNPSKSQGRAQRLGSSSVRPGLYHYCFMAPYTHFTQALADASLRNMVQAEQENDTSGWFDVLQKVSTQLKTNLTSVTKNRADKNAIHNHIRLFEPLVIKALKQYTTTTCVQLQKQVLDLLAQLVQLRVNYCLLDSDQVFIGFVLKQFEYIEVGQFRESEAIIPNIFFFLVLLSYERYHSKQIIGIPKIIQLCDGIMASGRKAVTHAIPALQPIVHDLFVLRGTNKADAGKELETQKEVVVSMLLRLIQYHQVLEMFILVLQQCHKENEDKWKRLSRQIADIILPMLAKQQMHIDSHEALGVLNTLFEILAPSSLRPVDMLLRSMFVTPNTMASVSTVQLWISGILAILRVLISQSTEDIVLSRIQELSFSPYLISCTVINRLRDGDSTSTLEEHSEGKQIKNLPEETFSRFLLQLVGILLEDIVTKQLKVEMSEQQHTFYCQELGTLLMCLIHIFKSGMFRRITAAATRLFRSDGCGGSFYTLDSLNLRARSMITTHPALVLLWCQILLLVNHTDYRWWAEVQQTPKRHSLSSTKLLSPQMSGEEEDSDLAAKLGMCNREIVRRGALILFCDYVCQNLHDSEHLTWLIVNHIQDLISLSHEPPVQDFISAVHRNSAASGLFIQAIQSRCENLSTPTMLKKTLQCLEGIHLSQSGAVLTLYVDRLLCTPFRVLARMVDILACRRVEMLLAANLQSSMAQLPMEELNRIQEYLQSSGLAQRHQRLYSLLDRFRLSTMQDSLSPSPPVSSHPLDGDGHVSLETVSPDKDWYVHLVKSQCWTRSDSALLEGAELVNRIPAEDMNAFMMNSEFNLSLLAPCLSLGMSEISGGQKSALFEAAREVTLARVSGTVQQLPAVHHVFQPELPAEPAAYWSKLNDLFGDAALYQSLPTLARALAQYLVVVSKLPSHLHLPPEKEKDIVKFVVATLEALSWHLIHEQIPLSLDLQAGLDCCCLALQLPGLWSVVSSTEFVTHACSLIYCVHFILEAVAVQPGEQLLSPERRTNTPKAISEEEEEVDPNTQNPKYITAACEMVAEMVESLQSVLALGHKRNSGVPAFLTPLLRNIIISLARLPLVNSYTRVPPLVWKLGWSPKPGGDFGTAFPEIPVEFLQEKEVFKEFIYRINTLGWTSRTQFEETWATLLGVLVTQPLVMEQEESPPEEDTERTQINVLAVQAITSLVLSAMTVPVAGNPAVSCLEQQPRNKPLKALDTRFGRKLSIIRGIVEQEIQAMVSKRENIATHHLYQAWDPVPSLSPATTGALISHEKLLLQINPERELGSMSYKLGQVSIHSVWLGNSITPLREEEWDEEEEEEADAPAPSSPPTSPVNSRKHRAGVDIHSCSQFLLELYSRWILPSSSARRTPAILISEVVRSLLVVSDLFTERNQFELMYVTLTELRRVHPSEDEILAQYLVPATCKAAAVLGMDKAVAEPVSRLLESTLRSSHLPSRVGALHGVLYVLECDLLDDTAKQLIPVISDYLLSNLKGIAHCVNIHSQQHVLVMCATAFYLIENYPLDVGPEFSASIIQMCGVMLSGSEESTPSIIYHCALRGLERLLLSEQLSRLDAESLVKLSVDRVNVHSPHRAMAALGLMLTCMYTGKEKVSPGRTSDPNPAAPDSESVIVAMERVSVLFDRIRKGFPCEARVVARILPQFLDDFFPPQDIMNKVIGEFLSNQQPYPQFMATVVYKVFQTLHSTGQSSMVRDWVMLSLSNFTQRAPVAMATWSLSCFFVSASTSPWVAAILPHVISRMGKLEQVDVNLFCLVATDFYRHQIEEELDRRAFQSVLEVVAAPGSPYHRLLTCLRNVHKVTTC
row,Compound,pIC50
1,"CNc1c(-c2ccc3occc3c2)nc2cc(C#N)ccn12 [2-(1-benzofuran-5-yl)-3-(methylamino)imidazo[1,2-a]pyridine-7-carbonitrile]",6.30 to 7.00
2,"CNc1c(-c2ccc3c(c2)OCCO3)nc2cc(C#N)ccn12 [2-(2,3-dihydro-1,4-benzodioxin-6-yl)-3-(methylamino)imidazo[1,2-a]pyridine-7-carbonitrile]",6.30 to 7.00
3,"CNc1c(-c2ccc(C#N)cc2)nc2cc(C#N)ccn12 [2-(4-cyanophenyl)-3-(methylamino)imidazo[1,2-a]pyridine-7-carbonitrile]",> 7.00
4,"CNc1c(-c2ccc(OC)cc2)nc2cc(C#N)ccn12 [2-(4-methoxyphenyl)-3-(methylamino)imidazo[1,2-a]pyridine-7-carbonitrile]",> 7.00
5,"CNc1c(-c2ccc(OCC3=CSC4=NCCN34)cc2)nc2cc(C#N)ccn12 [2-(4-{5H,6H-imidazo[2,1-b][1,3]thiazol-3-ylmethoxy}phenyl)-3-(methylamino)imidazo[1,2-a]pyridine-7-carbonitrile]",> 7.00
6,"CNc1c(-c2ccc(NCc3ccc(OC)cn3)cc2)nc2cc(C#N)ccn12 [2-(4-{[(5-methoxypyridin-2-yl)methyl]amino}phenyl)-3-(methylamino)imidazo[1,2-a]pyridine-7-carbonitrile]",> 7.00
7,"CNc1c(-c2cc3cc(Br)ccc3o2)nc2cc(C#N)ccn12 [2-(5-bromo-1-benzofuran-2-yl)-3-(methylamino)imidazo[1,2-a]pyridine-7-carbonitrile]",> 7.00
8,"CNc1c(-c2ccc(Br)o2)nc2cc(C#N)ccn12 [2-(5-bromofuran-2-yl)-3-(methylamino)imidazo[1,2-a]pyridine-7-carbonitrile]",6.30 to 7.00

# Next, values leading:
row,pIC50,Compound
1,> 7.00,"CNc1c(-c2cc3cc(F)ccc3o2)nc2cc(C#N)ccn12 [2-(5-fluoro-1-benzofuran-2-yl)-3-(methylamino)imidazo[1,2-a]pyridine-7-carbonitrile]"
2,< 6.30,"CNc1c(-c2cc3cc(F)ccc3o2)nc2ccccn12 [2-(5-fluoro-1-benzofuran-2-yl)-N-methylimidazo[1,2-a]pyridin-3-amine]"
3,> 7.00,"CNc1c(-c2cc3cc(O)ccc3o2)nc2cc(C#N)ccn12 [2-(5-hydroxy-1-benzofuran-2-yl)-3-(methylamino)imidazo[1,2-a]pyridine-7-carbonitrile]"
4,> 7.00,"CNc1c(-c2nc3cc(OC)ccc3o2)nc2cc(C#N)ccn12 [2-(5-methoxy-1,3-benzoxazol-2-yl)-3-(methylamino)imidazo[1,2-a]pyridine-7-carbonitrile]"
5,> 7.00,"COCc1c(-c2cc3cc(OC)ccc3o2)nc2cc(C#N)ccn12 [2-(5-methoxy-1-benzofuran-2-yl)-3-(methoxymethyl)imidazo[1,2-a]pyridine-7-carbonitrile]"
6,> 7.00,"CNc1c(-c2cc3cc(OC)ccc3o2)nc2ccc(C#N)cn12 [2-(5-methoxy-1-benzofuran-2-yl)-3-(methylamino)imidazo[1,2-a]pyridine-6-carbonitrile]"
7,> 7.00,"CNc1c(-c2cc3cc(OC)ccc3o2)nc2cc(C#N)ccn12 [2-(5-methoxy-1-benzofuran-2-yl)-3-(methylamino)imidazo[1,2-a]pyridine-7-carbonitrile]"
8,> 7.00,"COCCNc1c(-c2cc3cc(OC)ccc3o2)nc2cc(C#N)ccn12 [2-(5-methoxy-1-benzofuran-2-yl)-3-[(2-methoxyethyl)amino]imidazo[1,2-a]pyridine-7-carbonitrile]"
9,6.30 to 7.00,"COCCNc1c(-c2cc3cc(OC)ccc3o2)nc2ccccn12 [2-(5-methoxy-1-benzofuran-2-yl)-N-(2-methoxyethyl)imidazo[1,2-a]pyridin-3-amine]"
10,> 7.00,"CNc1c(-c2cc3cc(OC)ccc3o2)nc2cc(C#C[Si](C)(C)C)ccn12 [2-(5-methoxy-1-benzofuran-2-yl)-N-methyl-7-[2-(trimethylsilyl)ethynyl]imidazo[1,2-a]pyridin-3-amine]"
11,6.30 to 7.00,"CNc1c(-c2cc3cc(OC)ccc3o2)nc2ccccn12 [2-(5-methoxy-1-benzofuran-2-yl)-N-methylimidazo[1,2-a]pyridin-3-amine]"
